One experiment deals with Estrogen receptor beta (Homo sapiens, UniProt Q92731). Description: ERβ–SRC-3 coactivator interaction inhibitors, confirmation, orthogonal assay, biochemical, ELISA, streptavidin-HRP readout (AID 1060). (An ELISA detects its analyte on a solid surface through an enzyme-linked reagent.)
Experiment [1] can be described thus: HeLa cell cytotoxicity, dose response, cytotoxicity control for MgcRacGAP inhibitor project (AID 624300). The experiment is classed as functional.
The target in experiment [2] is T1, Sentrin-specific protease 7 (Homo sapiens, UniProt Q9BQF6).
T1 sequence (Q9BQF6 whole entry): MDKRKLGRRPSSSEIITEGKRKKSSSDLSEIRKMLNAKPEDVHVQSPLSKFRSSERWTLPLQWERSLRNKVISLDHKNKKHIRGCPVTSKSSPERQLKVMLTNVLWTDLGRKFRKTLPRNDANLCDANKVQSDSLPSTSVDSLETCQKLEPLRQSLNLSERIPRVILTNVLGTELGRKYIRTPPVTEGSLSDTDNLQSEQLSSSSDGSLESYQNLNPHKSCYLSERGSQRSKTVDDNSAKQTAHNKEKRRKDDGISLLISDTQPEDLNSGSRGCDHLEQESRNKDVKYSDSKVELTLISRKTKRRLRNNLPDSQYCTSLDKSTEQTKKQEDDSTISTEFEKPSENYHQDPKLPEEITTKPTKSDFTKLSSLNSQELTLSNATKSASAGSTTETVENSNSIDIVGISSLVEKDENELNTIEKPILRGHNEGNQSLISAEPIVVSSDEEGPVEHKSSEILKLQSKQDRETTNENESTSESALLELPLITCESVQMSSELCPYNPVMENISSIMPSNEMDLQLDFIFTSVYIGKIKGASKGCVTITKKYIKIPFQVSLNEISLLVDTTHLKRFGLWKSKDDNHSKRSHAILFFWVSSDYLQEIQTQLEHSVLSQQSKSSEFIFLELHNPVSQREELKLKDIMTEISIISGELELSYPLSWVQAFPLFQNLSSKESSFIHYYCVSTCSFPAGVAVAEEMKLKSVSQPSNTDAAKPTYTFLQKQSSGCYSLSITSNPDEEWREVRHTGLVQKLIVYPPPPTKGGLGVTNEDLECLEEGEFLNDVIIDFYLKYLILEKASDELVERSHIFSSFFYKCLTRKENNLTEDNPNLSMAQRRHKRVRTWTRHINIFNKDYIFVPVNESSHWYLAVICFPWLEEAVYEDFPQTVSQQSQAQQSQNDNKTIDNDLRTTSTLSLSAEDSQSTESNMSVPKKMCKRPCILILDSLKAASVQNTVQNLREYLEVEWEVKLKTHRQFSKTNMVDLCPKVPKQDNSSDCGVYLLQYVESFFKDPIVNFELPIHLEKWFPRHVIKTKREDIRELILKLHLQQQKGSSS
Description: SENP7 protease inhibitors, SAR follow-up, biochemical, luminescence (AID 504497). The experiment is classed as functional.

A short description of another experiment: cells. The experiment is classed as functional, cell-based.
For experiment [3], the target named is T2, Oxysterols receptor LXR-beta (Homo sapiens, UniProt P55055).
T2 sequence (P55055 whole entry): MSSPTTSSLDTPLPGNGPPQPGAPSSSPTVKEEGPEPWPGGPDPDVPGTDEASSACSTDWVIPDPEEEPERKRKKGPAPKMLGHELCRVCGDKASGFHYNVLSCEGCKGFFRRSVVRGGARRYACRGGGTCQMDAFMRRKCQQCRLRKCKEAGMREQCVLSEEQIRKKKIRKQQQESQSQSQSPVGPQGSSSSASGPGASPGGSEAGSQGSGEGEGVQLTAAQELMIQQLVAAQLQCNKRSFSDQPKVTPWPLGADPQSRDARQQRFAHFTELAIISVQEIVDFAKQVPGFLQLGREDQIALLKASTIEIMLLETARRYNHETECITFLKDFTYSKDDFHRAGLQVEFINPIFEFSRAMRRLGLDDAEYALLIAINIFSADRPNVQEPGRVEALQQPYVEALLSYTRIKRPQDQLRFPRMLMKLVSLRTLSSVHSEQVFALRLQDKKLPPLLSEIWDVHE
Put plainly: LXR agonists, Gal4 luciferase reporter, dose response, counter-screen for ssDAF-12 agonist project, cell-based, luminescence, HEK293, S. stercoralis campaign (AID 720737). The conditions noted are these: read-out: IC50 (the source's name). The experiment is classed as functional. Background: Reporter assays use an easily measured gene product as a stand-in for the process of interest.

In a further experiment the test system is HEK293. Put plainly: NOD1 signaling inhibitors, primary screen, cell-based, luminescence, uHTS (AID 1578). The experiment is classed as functional. The conditions noted are these: Homo sapiens.
In experiment [4] the target is PAS domain-containing serine/threonine-protein kinase (Homo sapiens, UniProt Q96RG2). The experiment is classed as functional.
For experiment [5], the target named is ALK tyrosine kinase receptor (Homo sapiens, UniProt Q9UM73). The experiment is classed as functional.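 Note: ALK tested as one member of a kinase panel screen.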
For experiment [6], the target named is MAP kinase-activated protein kinase 2 (Homo sapiens, UniProt P49137). The experiment is classed as functional.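 Note: measured as one member of a kinome-wide kinase panel.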
The target of experiment [7] is Casein kinase I isoform gamma-1 (Homo sapiens, UniProt Q9HCP0). The experiment is classed as functional.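 Note: measured as the CSNK1G1 member of a kinome profiling panel.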
Sequence of Casein kinase I isoform gamma-1 (Q9HCP0 whole entry, canonical isoform): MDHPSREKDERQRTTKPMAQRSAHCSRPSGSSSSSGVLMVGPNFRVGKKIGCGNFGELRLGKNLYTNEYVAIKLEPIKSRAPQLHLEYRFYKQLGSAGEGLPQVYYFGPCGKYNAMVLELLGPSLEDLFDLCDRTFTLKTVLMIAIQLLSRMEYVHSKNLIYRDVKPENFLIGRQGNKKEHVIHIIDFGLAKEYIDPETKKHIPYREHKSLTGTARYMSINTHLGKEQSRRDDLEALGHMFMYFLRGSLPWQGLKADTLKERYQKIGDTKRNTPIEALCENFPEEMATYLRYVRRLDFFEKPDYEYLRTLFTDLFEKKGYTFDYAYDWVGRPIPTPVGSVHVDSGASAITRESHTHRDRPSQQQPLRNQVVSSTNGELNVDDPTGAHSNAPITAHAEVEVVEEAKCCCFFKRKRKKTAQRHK
In experiment [8] the target is Tyrosine-protein kinase Lyn (Homo sapiens, UniProt P07948). The experiment is classed as functional.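 Note: lyn as one member of a kinase panel.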
Experiment [9] deals with Testis-specific serine/threonine-protein kinase 1 (Homo sapiens, UniProt Q9BXA7). The experiment is classed as functional.
Sequence of Testis-specific serine/threonine-protein kinase 1 (Q9BXA7 whole entry): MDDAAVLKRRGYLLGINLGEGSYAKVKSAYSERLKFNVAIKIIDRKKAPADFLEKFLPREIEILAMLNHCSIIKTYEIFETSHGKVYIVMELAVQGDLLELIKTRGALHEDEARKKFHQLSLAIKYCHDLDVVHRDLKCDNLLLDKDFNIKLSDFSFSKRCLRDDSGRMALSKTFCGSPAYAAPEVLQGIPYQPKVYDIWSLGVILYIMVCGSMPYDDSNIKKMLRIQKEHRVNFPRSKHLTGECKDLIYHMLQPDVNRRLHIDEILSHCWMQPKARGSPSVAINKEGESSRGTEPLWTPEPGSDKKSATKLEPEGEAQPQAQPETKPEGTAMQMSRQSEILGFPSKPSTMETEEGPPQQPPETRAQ
For experiment [10], the target named is Protein kinase C gamma type (Homo sapiens, UniProt P05129). The experiment is classed as functional.
Experiment [11] has as its target MAP kinase-activated protein kinase 3 (Homo sapiens, UniProt Q16644). The experiment is classed as functional.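 Note: value comes from a kinome-wide profiling panel in which MAPKAPK3 is one of the panel members.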
The target of experiment [12] is Protein kinase C iota type (Homo sapiens, UniProt P41743). The experiment is classed as functional.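 Note: measured within a kinome-wide kinase panel, PRKCI as panel member.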
Sequence of Protein kinase C iota type (P41743 whole entry): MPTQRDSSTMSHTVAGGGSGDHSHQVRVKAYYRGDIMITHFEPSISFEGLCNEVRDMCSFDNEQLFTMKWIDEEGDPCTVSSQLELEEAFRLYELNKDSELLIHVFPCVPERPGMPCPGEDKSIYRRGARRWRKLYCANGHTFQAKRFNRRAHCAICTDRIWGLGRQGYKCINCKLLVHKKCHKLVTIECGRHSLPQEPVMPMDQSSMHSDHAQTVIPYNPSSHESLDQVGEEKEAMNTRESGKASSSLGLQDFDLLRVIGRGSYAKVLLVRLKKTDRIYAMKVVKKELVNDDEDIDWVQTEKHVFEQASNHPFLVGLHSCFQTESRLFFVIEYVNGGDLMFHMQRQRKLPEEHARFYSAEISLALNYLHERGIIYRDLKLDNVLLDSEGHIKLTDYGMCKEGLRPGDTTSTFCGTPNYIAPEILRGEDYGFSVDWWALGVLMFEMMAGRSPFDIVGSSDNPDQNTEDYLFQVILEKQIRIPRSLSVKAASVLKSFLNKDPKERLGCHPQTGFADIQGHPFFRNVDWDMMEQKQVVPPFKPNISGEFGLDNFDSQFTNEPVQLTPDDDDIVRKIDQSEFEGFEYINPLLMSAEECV
Experiment [13] has as its target Vascular endothelial growth factor receptor 3 (Homo sapiens, UniProt P35916). The experiment is classed as functional.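 Note: value from a kinome-wide profiling panel, with FLT4 as the panel member.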
The target of experiment [14] is Rho-associated protein kinase 1 (Homo sapiens, UniProt Q13464). The experiment is classed as functional.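 Note: measured within a broad kinome-wide panel profiling many kinases.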
Sequence of Rho-associated protein kinase 1 (Q13464 whole entry): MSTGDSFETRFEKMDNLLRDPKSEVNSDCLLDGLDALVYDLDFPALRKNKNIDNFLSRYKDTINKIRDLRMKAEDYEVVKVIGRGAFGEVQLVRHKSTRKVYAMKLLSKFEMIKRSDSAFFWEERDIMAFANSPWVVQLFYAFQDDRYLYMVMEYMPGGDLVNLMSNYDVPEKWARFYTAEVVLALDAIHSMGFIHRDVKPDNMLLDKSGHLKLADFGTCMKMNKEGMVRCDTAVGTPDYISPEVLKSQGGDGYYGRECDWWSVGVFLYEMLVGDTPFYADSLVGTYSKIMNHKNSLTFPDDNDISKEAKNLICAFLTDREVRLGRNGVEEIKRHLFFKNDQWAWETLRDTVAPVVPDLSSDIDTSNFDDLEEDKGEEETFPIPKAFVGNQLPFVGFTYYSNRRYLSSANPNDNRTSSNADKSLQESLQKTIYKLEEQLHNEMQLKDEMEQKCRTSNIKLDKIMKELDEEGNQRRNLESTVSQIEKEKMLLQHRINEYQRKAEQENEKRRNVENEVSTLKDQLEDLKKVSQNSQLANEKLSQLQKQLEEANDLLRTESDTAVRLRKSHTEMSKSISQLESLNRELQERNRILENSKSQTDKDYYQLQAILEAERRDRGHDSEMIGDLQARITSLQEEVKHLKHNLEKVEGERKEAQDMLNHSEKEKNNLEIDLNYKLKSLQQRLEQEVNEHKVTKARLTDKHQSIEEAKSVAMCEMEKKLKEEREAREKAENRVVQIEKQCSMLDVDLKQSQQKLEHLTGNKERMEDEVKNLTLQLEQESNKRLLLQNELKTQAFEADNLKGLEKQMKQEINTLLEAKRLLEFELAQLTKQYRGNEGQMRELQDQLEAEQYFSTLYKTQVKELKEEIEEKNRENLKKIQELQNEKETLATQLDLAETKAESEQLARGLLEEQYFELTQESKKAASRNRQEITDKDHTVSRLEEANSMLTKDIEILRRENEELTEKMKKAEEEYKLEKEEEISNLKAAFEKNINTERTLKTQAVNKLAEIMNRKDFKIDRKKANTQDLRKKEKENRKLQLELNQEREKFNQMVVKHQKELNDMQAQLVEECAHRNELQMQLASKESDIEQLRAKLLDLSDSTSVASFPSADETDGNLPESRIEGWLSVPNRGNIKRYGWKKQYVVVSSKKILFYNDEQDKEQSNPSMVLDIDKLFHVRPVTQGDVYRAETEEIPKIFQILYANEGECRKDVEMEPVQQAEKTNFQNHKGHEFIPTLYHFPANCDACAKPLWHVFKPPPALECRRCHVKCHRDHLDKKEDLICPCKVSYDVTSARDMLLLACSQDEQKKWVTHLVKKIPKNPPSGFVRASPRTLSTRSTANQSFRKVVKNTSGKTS
The target in experiment [15] is Tyrosine-protein kinase Fer (Homo sapiens, UniProt P16591). The experiment is classed as functional.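 Note: FER tested as one member of a kinome panel.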
Experiment [16] has as its target Tyrosine-protein kinase Fyn (Homo sapiens, UniProt P06241). The experiment is classed as functional.
For experiment [17], the target named is Serine/threonine-protein kinase DCLK1 (Homo sapiens, UniProt O15075). The experiment is classed as functional.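 Note: affinity for DCLK1 (listed as DCAMKL1) measured as one member of a kinome-wide kinase profiling panel.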
Experiment [18] addresses Lymphokine-activated killer T-cell-originated protein kinase (Homo sapiens, UniProt Q96KB5). The experiment is classed as functional.
The next experiment concerns the target Mu-type opioid receptor (Homo sapiens, UniProt P35372). Description: HTS Image-Based Screen for Agonists of the MOR Receptor. [Related pubchem assays (depositor defined):AID1777, AID1785, AID1786, AID2133]. The experiment is classed as functional.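 Note: imaging of beta-arrestin GFP recruitment into spots after receptor activation.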
A further experiment concerns the target Wee1-like protein kinase (Homo sapiens, UniProt P30291). Description: Dose Response Cell-based Assay for Inhibitors of Wee1 Degradation. [Related pubchem assays: 1410, 1321 ]. The experiment is classed as functional.
In experiment [19] the target is Sphingosine 1-phosphate receptor 1 (Homo sapiens, UniProt P21453). The experiment is classed as functional.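 Note: Tango beta-arrestin reporter U2OS cells stimulated with S1P near its EC80; inhibitor potency meaning antagonism of receptor activation by the natural agonist.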
Sequence of Sphingosine 1-phosphate receptor 1 (P21453 whole entry): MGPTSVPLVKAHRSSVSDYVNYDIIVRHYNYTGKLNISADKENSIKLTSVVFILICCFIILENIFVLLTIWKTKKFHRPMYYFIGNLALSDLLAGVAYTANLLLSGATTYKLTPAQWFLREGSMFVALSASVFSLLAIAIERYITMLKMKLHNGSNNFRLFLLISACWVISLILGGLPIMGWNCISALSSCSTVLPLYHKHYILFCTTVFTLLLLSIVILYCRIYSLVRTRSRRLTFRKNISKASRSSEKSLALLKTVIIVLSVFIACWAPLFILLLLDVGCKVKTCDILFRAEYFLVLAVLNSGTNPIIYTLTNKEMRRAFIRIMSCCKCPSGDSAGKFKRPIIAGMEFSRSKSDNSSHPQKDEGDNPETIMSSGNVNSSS

Five molecules from ChEMBL document CHEMBL1201862, “PubChem BioAssay data set” (2004) can be followed below.

SMILES strings stand for the structures. Calls of active or inactive are those of the source.

Sequence of Tyrosine-protein kinase Fyn (P06241 whole entry): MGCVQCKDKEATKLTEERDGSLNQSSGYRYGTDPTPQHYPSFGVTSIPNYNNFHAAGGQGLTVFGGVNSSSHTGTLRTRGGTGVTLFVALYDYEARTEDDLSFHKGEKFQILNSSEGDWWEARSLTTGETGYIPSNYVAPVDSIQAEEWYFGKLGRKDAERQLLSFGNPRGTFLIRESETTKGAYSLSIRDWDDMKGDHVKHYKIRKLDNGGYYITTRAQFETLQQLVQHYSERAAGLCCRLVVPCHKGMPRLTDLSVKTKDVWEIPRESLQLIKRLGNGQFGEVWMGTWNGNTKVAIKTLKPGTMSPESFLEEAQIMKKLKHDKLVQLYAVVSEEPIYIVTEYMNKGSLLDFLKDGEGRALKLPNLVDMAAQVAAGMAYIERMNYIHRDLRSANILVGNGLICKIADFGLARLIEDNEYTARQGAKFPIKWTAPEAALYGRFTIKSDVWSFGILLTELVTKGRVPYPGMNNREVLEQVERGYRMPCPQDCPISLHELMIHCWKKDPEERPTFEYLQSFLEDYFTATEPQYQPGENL
Sequence of Wee1-like protein kinase (P30291 whole entry): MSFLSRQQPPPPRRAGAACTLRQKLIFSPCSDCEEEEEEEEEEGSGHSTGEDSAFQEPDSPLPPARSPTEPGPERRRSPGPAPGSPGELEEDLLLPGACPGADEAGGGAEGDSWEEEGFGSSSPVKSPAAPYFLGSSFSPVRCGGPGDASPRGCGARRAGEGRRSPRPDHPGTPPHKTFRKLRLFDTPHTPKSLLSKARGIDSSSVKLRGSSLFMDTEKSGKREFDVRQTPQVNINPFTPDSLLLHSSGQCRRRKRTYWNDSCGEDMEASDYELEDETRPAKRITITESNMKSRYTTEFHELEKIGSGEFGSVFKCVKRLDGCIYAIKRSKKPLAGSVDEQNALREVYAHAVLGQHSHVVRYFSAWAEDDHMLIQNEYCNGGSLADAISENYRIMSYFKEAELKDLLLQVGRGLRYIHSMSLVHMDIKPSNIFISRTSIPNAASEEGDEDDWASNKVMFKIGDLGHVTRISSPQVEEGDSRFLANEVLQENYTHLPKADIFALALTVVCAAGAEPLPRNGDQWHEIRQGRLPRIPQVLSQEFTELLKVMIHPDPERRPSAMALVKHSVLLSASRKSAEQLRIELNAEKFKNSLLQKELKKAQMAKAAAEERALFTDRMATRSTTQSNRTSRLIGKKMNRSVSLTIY

As usually defined, the IC50 is the concentration needed to halve the response being measured. The term CC50 denotes the concentration giving 50% cytotoxicity. For `CN(C)c1ncc(C2=C(Cl)C(=O)C(N3CCCC3)=C(Cl)C2=O)s1`, the concentration for half-maximal inhibition (IC50) on Estrogen receptor beta was 20.6 µM (not active). In addition, the cytotoxic concentration (CC50) in [1] was 18.7 µM (active).

Regarding `Cc1cnc(NC(=O)c2sc3ccccc3c2Cl)s1`, the half-maximal inhibitory concentration (IC50) in [2] was 1.77 µM (active); in “cells”, > 67.5 µM (inactive). In addition, in [3], the EC50 was > 67.5 µM (inactive).

As to `O=C1C(O)=C/C(=N\c2ccccc2O)c2ccccc21`, the EC50 in the experiment with HEK293 is 14.8 µM (active).

For orientation: Ki means the equilibrium dissociation constant of an inhibitor or competing ligand from its target. For the molecule `O=C1NC(=S)SC1=C1C(=O)Nc2ccc(Br)cc21`, the Ki was > 1.58 µM (inactive) in experiment [4]; > 1.26 µM (inactive) in [5]; > 7.94 µM (inactive) in experiment [6]; > 6.31 µM (inactive) in experiment [7]; > 1.58 µM (inactive) in experiment [8]; > 1.58 µM (inactive) in experiment [9]. The Ki in experiment [10] was > 7.94 µM (inactive); in [11] it was > 10 µM (inactive); in experiment [12] it was > 5.01 µM (inactive); in [13], > 6.31 µM (inactive); in experiment [14], 5.01 µM (active); in [15] it was > 1.58 µM (inactive). Also, the values for the Ki in experiment [16], in experiment [17] and in experiment [18] were > 0.794 µM (inactive), > 10 µM (inactive) and 7.94 µM (active), respectively.

Regarding `Cc1ccc(Nc2cc(C)nn2-c2nc(C)cc(O)n2)cc1`, the EC50 on Mu-type opioid receptor was > 32 µM (inactive); on Wee1-like protein kinase, > 1.84 µM (active). Also, in experiment [19], the IC50 is 0.764 µM (active).
